“Also recorded” adds a separate entry of the source. Non-standard residues stand in square brackets, D forms with d. Residues, ends and D or L forms follow the SMILES beside them. *: point of attachment. Phe(F5) = N[C@@H](Cc1c(F)c(F)c(F)c(F)c1F)C(=O)O; hArg = N=C(N)NCCCC[C@H](N)C(=O)O; 12Ado = NCCCCCCCCCCCC(=O)O; Nle = CCCC[C@H](N)C(=O)O; Orn = NCCC[C@H](N)C(=O)O; Abu = CC[C@H](N)C(=O)O; PhAc = O=C(Cc1ccccc1)*
Experiments:
[1] = tested on: PC3 cells; test: In vitro cell viability, prostatic cancer PC3; assay type: cell-based, human; conditions: 5 μM, 72 h; relative to MIA602 = 1; Table 3A
Protocol: (§1) The inhibitory effects of the various synthesized GHRH antagonists were tested in cell proliferation assays in various human cancer cell lines including stomach cancer (KATOIII, N87), colon cancer (HT-29), urothelial cancer (J82, RT4), pancreatic cancer (PANC-1, CFPAC-1), prostatic cancer (PC3), breast cancer (MX-1, HCC1806), ovarian cancer (SK-OV-3, OVCAR-3) and lung cancer (HCC827, H460).
(§2) Cell culture. Human cancer cell lines including pancreatic (PANC-1 and CFPAC-1), lung (HCC827 and H460), stomach (NCI-N87 and KATOIII), urothelial (J82, RT4), prostatic (PC3), breast (MX-1 and HCC 1806), colorectal (HT-29), and ovarian (SK-OV-3 and OVCAR-3) were obtained from the American Type Culture Collection (ATCC) and cultured at 37° C. in a humidified 95% air/5% CO2 atmosphere in the medium recommended by ATCC.
(§3) In vitro cell viability. Cell viability was analyzed as follows: cancer cells including pancreatic (PANC-1 and CFPAC-1), lung (HCC827 and H460), stomach (NCI-N87 and KATOIII), urothelial (J82, RT4), prostatic (PC3) and breast (MX-1 and HCC 1806), colorectal (HT-29) and ovarian (SK-OV-3 and OVCAR-3) were grown on 96 well plates to ˜60% confluence, the cells were starved for 24 h in culture medium containing 0.5% FBS. Cells were then treated with GHRH antagonists MIA602 AVR compounds at concentrations of 1, 2.5 or 5 μM, or vehicle (0.1% DMSO) in quintuplicates for 72 hours. The medium was replaced every 48 hours. Cell viability was measured using CellTiter 96 aqueous one solution kit (Promega). Inhibitory effects of tested AVR compounds in comparison to that of MIA602 are presented as inhibitory potency.
Inhibitory effects of selected AVR compounds in comparison to that of MIA602 are presented as inhibitory potency (e.g., percentage of inhibition). […] The cell lines tested including lung cancer HCC827 (FIG. 2A), pancreatic cancer CFPAC-1 (FIG. 2B), stomach cancer N87 (FIG. 2C), colon cancer HT-29 (FIG. 2D), breast cancers MX-1 and HCC1806 (FIGS. 2E, F). […]

[2] = tested on: HCC1806 cells; test: In vitro cell viability, breast cancer HCC1806; assay type: cell-based, human; conditions: 5 μM, 72 h
Protocol: as §1, §2, §3
Inhibitory effects of selected AVR compounds in comparison to that of MIA602 are presented as inhibitory potency (e.g., percentage of inhibition). […] The cell lines tested including lung cancer HCC827 (FIG. 2A), pancreatic cancer CFPAC-1 (FIG. 2B), stomach cancer N87 (FIG. 2C), colon cancer HT-29 (FIG. 2D), breast cancers MX-1 and HCC1806 (FIGS. 2E, F). Based on the results of cell proliferation assay after cancer cells were treated with antagonist at concentration of 5 μM for 72H, the relative inhibitory potency of AVR antagonists in comparison to MIA-602 is summarized in Table 3 A and B. Over 60 AVR compounds were tested in 12 cancer cell lines.
Based on the results of cell proliferation assay after cancer cells were treated with antagonist at concentration of 5 µM for 72H, * at concentration of 2 µM for 72 H.

[3] = tested on: OVCAR-3 cells; test: In vitro cell viability, ovarian cancer OVCAR-3; assay type: cell-based, human; conditions: * at concentration of 2 μM for 72 h; Table 3B
Protocol: as §1, §2
In vitro cell viability. Cell viability was analyzed as follows: cancer cells including pancreatic (PANC-1 and CFPAC-1), lung (HCC827 and H460), stomach (NCI-N87 and KATOIII), urothelial (J82, RT4), prostatic (PC3) and breast (MX-1 and HCC 1806), colorectal (HT-29) and ovarian (SK-OV-3 and OVCAR-3) were grown on 96 well plates to ˜60% confluence, the cells were starved for 24 h in culture medium containing 0.5% FBS. […] Cell viability was measured using CellTiter 96 aqueous one solution kit (Promega). […]

[4] = tested on: C57Bl/6J mice treated with bleomycin; test: RNAseq and pathway analysis of lung tissue of bleomycin-treated mice; assay type: in vivo, mouse; conditions: bleomycin 28 days, MIA-602 versus vehicle
Protocol: Bleomycin and GHRH-R antagonist treatment. Mice were treated with 0.8 units of bleomycin (Bleomycin for Injection USP, Hospira, Lake Forest, IL) intraperitoneally (IP) on days 1, 3, 7, 10, 14 and 21 (Collins S, Chan-Li Y, Oh M, Vigeland C, Limjunyawong N, Mitzner W, Powell J D, Horton M R (2016). JCI Insight 1(4):1-13). Mice (randomly assigned) were simultaneously treated subcutaneously (sc) with MIA-602 (5 μg/day) or its vehicle (100 μL/day). MIA-602 was dissolved in DMSO (ACS grade; Sigma-Aldrich) and diluted 1:500 in normal saline for daily sc injection on days 0-21.
RNA isolation. RNA was extracted from fixed lung tissue in paraffin blocks using a Quick-RNA™ FFPE Kit (R1008, Zymo Research, Irvine, CA) following the manufacturer's protocol (Patel P, Selvarajah S, Guerard K, Bartlett J, Lapointe J, Berman D, Okello J, Park P (2017). PLoS ONE 12:e0179732). […]
RNAseq and Pathway analyses. […] Cluster generation and sequencing was done on the Illumina cBOT and HiSeq 3000 using reagents provided by Illumina, finally generating >32 million single-end 100 base reads per sample. […]
Gene counts were normalized using trimmed mean of M-values (TMM) method. Differential expression between groups was calculated with the exact test implemented in edgeR (Robinson M, McCarthy D, Smyth G (2010). Bioinformatics 26:139-140). […]

[5] = tested on: PAK1-STAT3/NF-κB in gastric cancer cells; conditions: Gan et al. 2016; cited from earlier work

CCCC[C@H](NC(=O)[C@@H](NC(=O)[C@H](CC(=O)O)NC(=O)[C@H](CCC(N)=O)NC(=O)[C@H](CC(C)C)NC(=O)[C@H](CC(C)C)NC(=O)[C@H](CCCN)NC(=O)[C@H](Cc1c[nH]cn1)NC(=O)[C@H](C)NC(=O)[C@H](CO)NC(=O)[C@H](CC(C)C)NC(=O)[C@H](CCC(N)=O)NC(=O)[C@H](CC)NC(=O)[C@H](CC(C)C)NC(=O)[C@@H](NC(=O)[C@H](CCCN)NC(=O)[C@H](Cc1c[nH]cn1)NC(=O)[C@H](Cc1ccc(OC)cc1)NC(=O)[C@H](CCCCNC(=N)N)NC(=O)[C@H](C)NC(=O)[C@@H](NC(=O)[C@H](Cc1c(F)c(F)c(F)c(F)c1F)NC(=O)[C@@H](NC(=O)[C@H](C)NC(=O)[C@H](CC(=O)O)NC(=O)[C@@H](CCCNC(=N)N)NC(=O)[C@H](Cc1ccc(O)cc1)NC(=O)CCCCCCCCCCCNC(=O)Cc1ccccc1)[C@@H](C)CC)[C@@H](C)O)C(C)C)[C@@H](C)CC)C(=O)N[C@H](CCCNC(=N)N)C(=O)N[C@@H](CCCCNC(=N)N)C(N)=O [MIA-602, PhAC-Ada, Tyr D-Arg, Asp, Ala, Ile, 5FPhe, Thr, Ala, Har, Tyr(Me), His, Orn, Val, Leu, Abu, Gin, Leu, Ser, Ala, His, Orn, Leu, Leu, Gin, Asp, Ile, Nle, D-Arg, Har NH2, reference compound] ({PhAc-12Ado}-Y[dR]DAI[Phe(F5)]TA[hArg]Y(Me)H[Orn]VL[Abu]QLSAH[Orn]LLQDI[Nle][dR][hArg]-NH2)
Relative inhibitory potency, Prostatic PC3 [1]: 1
In vitro relative inhibitory potency in comparison to MIA-602, HCC-1806 ([2]; Table 3B): 1
Relative inhibitory potency, Breast HCC1806 ([2]; relative to MIA602 = 1, Table 3A): 1
In vitro relative inhibitory potency in comparison to MIA-602, OVCAR-3 [3]: 1
Lung gene expression, RNA-seq pathway analysis [4]: suppression of the adaptive immune response, T cell differentiation and activation and cytokine production
Signaling pathways in gastric cancer cells [5]: downregulates p21 activated kinase and STAT3 and NFκB; also recorded: inhibits signaling pathways, including PAK1-STAT3/NF-κB

Reference: US11993640B2, “Treating inflammatory lung disease” (United States Government as represented by the Department …, priority 2019, dated 2024)
